From patent publication US7977374B2, “Thiophene and thiazole substituted trifluoroethanone derivatives as histone deacetylase (HDAC) inhibitors” (Istituto Di Ricerche Di Biologia Molecolare P. Angeletti SPA, priority 2005, dated 2011)
Where two headings read alike, the source gives them in different places.

Key:
Format in all cases: biochemical
HDAC 1 = HDAC 1 (Homo sapiens, UniProt Q13547); experiment: HDAC1 activity, assays described on pages 104 to 106 of WO 2006/061638
HDAC 4 = target: T1, HDAC 4 (Homo sapiens, UniProt P56524); experiment: HDAC 4 Assay
T1 construct: The His-tagged HDAC 4, wild-type catalytic domain, was expressed in E. coli; His tag; made in house; host or cells: E. coli BL21 Star (DE3)

HDAC 6 = target: T2, HDAC 6 (Homo sapiens, UniProt Q9UBN7); experiment: HDAC 6 Assay
T2 construct: made in house
T2 sequence (Q9UBN7 1-1215): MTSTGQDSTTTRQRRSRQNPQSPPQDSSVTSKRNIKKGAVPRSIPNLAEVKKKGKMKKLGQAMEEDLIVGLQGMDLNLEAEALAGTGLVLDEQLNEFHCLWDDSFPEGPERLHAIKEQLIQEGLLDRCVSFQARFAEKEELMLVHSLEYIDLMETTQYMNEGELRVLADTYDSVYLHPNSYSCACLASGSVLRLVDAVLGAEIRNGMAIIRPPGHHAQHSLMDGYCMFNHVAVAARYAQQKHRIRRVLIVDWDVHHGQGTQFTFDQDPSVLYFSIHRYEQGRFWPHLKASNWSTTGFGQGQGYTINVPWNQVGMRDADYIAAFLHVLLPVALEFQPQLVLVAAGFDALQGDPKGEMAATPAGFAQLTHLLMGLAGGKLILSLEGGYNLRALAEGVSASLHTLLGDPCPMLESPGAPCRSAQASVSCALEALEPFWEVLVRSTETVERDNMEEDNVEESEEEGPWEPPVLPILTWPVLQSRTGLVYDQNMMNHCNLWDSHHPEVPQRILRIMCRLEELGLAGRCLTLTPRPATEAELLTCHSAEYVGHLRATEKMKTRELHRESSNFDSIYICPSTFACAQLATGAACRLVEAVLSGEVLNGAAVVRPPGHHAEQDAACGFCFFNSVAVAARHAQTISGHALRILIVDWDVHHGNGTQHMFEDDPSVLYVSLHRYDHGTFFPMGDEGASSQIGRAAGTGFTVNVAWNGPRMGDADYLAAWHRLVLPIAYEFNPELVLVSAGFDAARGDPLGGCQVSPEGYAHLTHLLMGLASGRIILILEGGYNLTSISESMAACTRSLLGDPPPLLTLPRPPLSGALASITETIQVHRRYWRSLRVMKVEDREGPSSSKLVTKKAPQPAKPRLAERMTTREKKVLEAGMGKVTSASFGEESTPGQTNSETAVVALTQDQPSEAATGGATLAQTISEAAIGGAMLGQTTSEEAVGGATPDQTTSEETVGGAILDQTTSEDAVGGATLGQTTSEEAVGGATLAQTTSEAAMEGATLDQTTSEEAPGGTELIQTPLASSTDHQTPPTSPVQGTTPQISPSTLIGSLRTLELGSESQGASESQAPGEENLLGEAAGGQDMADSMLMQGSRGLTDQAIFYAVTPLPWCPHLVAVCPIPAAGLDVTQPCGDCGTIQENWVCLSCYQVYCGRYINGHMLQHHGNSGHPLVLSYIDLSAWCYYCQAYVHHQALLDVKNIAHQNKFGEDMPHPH

T1 sequence (P56524 655-1084 limits assumed): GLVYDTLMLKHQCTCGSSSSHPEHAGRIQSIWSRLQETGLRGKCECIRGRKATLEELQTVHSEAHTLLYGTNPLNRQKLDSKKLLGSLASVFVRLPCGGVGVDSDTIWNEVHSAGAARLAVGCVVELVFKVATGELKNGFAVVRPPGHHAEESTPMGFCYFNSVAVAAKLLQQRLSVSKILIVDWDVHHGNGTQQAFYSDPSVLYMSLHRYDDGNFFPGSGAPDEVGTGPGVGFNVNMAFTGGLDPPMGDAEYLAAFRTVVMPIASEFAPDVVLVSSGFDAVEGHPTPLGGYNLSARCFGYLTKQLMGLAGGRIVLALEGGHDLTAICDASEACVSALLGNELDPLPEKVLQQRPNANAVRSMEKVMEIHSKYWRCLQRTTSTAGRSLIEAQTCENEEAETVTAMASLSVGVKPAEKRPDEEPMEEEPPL
Chain of HDAC 1 (Q13547 whole entry): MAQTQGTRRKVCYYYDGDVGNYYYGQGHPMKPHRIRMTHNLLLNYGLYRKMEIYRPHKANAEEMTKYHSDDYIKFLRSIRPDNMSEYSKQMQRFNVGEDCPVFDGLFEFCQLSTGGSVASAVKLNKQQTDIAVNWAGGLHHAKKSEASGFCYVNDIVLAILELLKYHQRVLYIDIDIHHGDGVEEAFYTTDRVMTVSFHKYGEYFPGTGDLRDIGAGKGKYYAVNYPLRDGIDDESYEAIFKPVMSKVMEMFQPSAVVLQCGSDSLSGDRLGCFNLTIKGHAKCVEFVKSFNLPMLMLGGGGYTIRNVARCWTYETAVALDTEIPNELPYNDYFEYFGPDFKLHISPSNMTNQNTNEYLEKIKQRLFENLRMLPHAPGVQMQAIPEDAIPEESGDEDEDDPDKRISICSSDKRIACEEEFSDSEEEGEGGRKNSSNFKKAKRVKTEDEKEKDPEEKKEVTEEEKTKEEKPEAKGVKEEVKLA

SMILES	IC50 (HDAC 1)	selectivity for Class II HDAC (HDAC 4 and 6) over Class I (HDAC 1) (HDAC 4; HDAC 4 and 6 versus HDAC 1)	IC50 (HDAC 4; read-out: HDAC 4 IC50)	IC50 (HDAC 6)	IC50 (HDAC 4; not active up to the stated concentration, read-out: HDAC 4 IC50, Not active up to)	inhibition at 0.001 µM (HDAC 6; @ 1 nM, read-out: HDAC 6 % inh.)	inhibition at 1 µM (HDAC 4; @ 1000 nM, read-out: HDAC 4 % inh.)
C[C@@H](NC(=O)c1ccc(C(=O)C(F)(F)F)s1)c1ccccc1 [Example 8, N-[(1R)-1-phenylethyl]-5-(trifluoroacetyl)thiophene-2-carboxamide]	710 nM	showed selectivity for Class II HDAC (HDAC 4 and 6) over Class I (HDAC 1)	95 nM	350 nM	–	–	–
C[C@@H](NC(=O)c1ccc(C(=O)NO)s1)c1ccccc1 [N-hydroxy-N′-[(1R)-1-phenytethyl]thiophene-2,5-dicarboxamide]	6 nM	–	–	–	> 1000 nM	50%	–
CC(/C=C/C(=O)NO)=C\[C@@H](C)C(=O)c1ccc(N(C)C)cc1 [TSA, trichostatin A]	–	–	–	–	–	–	42%
